Assay results published in ChEMBL document CHEMBL1149626, “Aza analogues of equol: novel ligands for estrogen receptor beta” (Bioorg Med Chem, 2007).
Activity calls are given as the source filed them. The rule behind the calls is not given here.

Tests used:
Mus musculus [1] = test: Effect on bone mineral density in ovariectomized kunming mouse at 4 umol/kg, sc qd for 4 weeks; assay type: functional
Homo sapiens [2] = organism: Homo sapiens; test: Selectivity for human ERbeta over human ERalpha
Estrogen receptor [3] = molecular target: T1, Estrogen receptor (Homo sapiens, UniProt P03372)
T1 sequence (P03372 whole entry): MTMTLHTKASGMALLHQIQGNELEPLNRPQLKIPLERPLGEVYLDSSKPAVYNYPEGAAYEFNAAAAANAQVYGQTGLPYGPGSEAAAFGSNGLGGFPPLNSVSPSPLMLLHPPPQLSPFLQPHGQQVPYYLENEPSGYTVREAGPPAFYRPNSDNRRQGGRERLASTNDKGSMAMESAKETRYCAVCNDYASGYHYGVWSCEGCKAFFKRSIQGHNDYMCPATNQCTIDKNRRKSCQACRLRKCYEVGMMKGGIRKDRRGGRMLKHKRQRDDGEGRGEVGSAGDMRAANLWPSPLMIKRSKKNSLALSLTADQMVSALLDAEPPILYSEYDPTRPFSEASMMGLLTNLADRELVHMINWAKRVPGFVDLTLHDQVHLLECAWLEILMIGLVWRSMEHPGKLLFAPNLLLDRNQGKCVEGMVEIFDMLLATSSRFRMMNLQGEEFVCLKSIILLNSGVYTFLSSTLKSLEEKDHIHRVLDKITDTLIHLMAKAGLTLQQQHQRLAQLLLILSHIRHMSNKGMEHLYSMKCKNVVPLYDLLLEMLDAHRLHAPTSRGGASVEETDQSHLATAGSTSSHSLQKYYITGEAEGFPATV
Description: (§1) Displacement of [3H]17beta-estradiol from recombinant human ERalpha

Estrogen receptor beta [4] = molecular target: T2, Estrogen receptor beta (Homo sapiens, UniProt Q92731)
T2 sequence (Q92731 whole entry): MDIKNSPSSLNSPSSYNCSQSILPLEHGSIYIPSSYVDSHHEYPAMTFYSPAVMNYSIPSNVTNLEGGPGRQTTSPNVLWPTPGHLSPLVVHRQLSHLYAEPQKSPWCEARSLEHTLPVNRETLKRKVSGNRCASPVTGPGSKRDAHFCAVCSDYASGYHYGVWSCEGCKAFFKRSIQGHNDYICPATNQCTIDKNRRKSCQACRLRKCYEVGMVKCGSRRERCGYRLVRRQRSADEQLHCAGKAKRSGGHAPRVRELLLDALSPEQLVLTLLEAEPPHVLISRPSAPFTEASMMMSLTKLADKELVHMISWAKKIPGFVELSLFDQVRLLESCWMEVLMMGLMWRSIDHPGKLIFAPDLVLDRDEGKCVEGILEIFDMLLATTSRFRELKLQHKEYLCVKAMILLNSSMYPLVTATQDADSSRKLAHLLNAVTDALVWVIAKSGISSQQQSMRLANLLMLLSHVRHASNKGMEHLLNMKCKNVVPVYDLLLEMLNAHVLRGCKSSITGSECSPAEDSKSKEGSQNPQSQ
Description: Displacement of [3H]17beta-estradiol from recombinant human ERbeta

Mus musculus [5] = test: Effect on uterine wet weight in ovariectomized kunming mouse at 4 umol/kg, sc qd for 4 weeks; assay type: functional
[6] = molecular target: T3, Estrogen receptor (Homo sapiens) (UniProt P03372)
T3 sequence (whole entry): T1 sequence (P03372 whole entry)
Description: as §1

Estrogen receptor [7] = molecular target: T1, Estrogen receptor; test: Agonist activity at human ERalpha expressed in yeast AH109 by yeast two hybrid assay; assay type: functional
Estrogen receptor beta [8] = molecular target: T2, Estrogen receptor beta; test: Agonist activity at human ERbeta expressed in yeast AH109 by yeast two hybrid assay; assay type: functional
Estrogen receptor [9] = molecular target: T1, Estrogen receptor; test: Antagonist activity at ERalpha expressed in yeast AH109 assessed as inhibition of 17-beta-estradiol induced alpha-galactosidase activity; assay type: functional
Homo sapiens [10] = organism: Homo sapiens; test: Selectivity ratio of EC50 for human ERalpha to EC50 for human ERbeta

Row | SMILES | Activity (Mus musculus [1]) [mg/cm3] | Ratio IC50 (Homo sapiens [2]) | IC50 (Estrogen receptor [3]) [µM] | IC50 (Estrogen receptor beta [4]) [µM] | Activity (Mus musculus [5]) [mg] | Activity [6] | EC50 (Estrogen receptor [7]) [µM] | EC50 (Estrogen receptor beta [8]) [µM] | IC50 (Estrogen receptor [9]) [µM] | Ratio EC50 (Homo sapiens [10])
1 | CS(=O)(=O)N1CC(c2ccc(O)cc2)Cc2ccc(O)cc21 (stereo not drawn) | 475 | 61.5 | 32.1 | 0.52 | 32.5 |  |  |  |  | 
2 | O=CN1CC(c2ccc(O)cc2)Cc2ccc(O)cc21 (stereo not drawn) | 463 |  |  |  | 36.4 |  |  |  |  | 
3 | Oc1ccc(C2Cc3ccc(O)cc3NC2=S)cc1 (stereo not drawn) | 483 |  |  | 4.9 | 38.7 | inactive |  |  |  | 
4 | Oc1ccc(-c2cnc3cc(O)ccc3c2)cc1 | 430 |  |  |  | 33.1 |  | > 100 | 37.5 |  | 
5 | O=C(C1CC1)N1CC(c2ccc(O)cc2)Cc2ccc(O)cc21 (stereo not drawn) |  |  |  | 2.95 |  | inactive |  |  |  | 
6 | CCCN1CC(c2ccc(O)cc2)Cc2ccc(O)cc21 (stereo not drawn) | 439 | 17.9 | 2.47 | 0.14 | 28.3 |  |  | 4.75 | 2.65 | 
7 | CC(=O)N1CC(c2ccc(O)cc2)Cc2ccc(O)cc21 (stereo not drawn) | 451 |  |  |  | 29.1 |  |  |  |  | 
8 | Oc1ccc(C2CNc3cc(O)ccc3C2)cc1 (stereo not drawn) |  |  |  |  |  |  | > 100 | 9.7 |  | 
9 | CN1CC(c2ccc(O)cc2)Cc2ccc(O)cc21 (stereo not drawn) | 455 | 13.3 | 2.95 | 0.22 | 31.8 |  | 15.2 | 0.3 |  | 50
10 | CCN1CC(c2ccc(O)cc2)Cc2ccc(O)cc21 (stereo not drawn) | 454 | 17 | 1.41 | 0.083 | 31.7 |  | 24.3 | 0.58 |  | 41
11 | Oc1ccc(C2Cc3ccc(O)cc3N(CC3CC3)C2)cc1 (stereo not drawn) | 461 | 7.1 | 1.63 | 0.23 | 30.8 |  |  | 6.89 | 5.57 | 
12 | O=C(c1ccc(OCCN2CCCCC2)cc1)c1c(-c2ccc(O)cc2)sc2cc(O)ccc12 [RALOXIFENE] | 608 |  |  |  | 69.5 |  |  |  |  | 
